In general, IC50 refers to the concentration needed to halve the response being measured.

Structures are written as SMILES. Where a name gives a salt, the structure may show the parent alone.

The source of these data is US11564923B2, “Compounds and pharmaceutical compositions thereof for the treatment of inflammatory disorders” (Galapagos NV, priority 2017, dated 2023).

The target of experiment [1] is T1, Recombinant human JAK1 (catalytic domain, amino acids 866-1154) (Homo sapiens, UniProt P23458).
T1 construct: catalytic domain, amino acids 866-1154
T1 sequence (P23458 866-1154): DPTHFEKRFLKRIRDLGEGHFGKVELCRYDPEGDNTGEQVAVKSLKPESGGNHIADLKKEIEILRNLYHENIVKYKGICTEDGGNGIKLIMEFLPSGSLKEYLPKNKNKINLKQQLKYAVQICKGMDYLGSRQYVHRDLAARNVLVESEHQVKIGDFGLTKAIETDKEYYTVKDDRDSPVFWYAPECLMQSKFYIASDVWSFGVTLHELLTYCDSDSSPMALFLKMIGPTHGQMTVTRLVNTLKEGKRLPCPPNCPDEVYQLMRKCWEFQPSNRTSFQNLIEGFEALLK
Put plainly: JAK1 inhibition assay. In kind it is biochemical. Conditions: read-out: JAK1 potency IC50. On the procedure:
After 60 min at room temperature, reactions are stopped by adding 20 μL/well of detection mixture (1× detection buffer (Perkin Elmer, catalog number CR97-100), 0.5 nM Europium-anti-phosphotyrosine (PT66) (Perkin Elmer, catalog number AD0068/AD0069), 10 mM EDTA). […] Kinase activity is calculated by subtracting the ratio obtained in the presence of a positive control inhibitor (1 μM staurosporine) from the ratio obtained in the presence of vehicle. The ability of a test compound to inhibit this activity (or percentage inhibition) is determined as:
(§1) [formula] wherein Fluorescent ratio test compound=ratio RFU665/RFU615*1000 determined for sample with test compound present Fluorescent ratio control=ratio RFU665/RFU615*1000 determined for sample with positive control inhibitor Fluorescent ratio vehicle=ratio RFU665/RFU615*1000 determined in the presence of vehicle
Dose dilution series were prepared for the compounds enabling the testing of dose-response effects in the JAK1 assay and the calculation of the IC50 for the compound. Each compound is routinely tested at concentration of 20 μM followed by a 1/5 serial dilution, 10 points in a final concentration of 1% DMSO. […] The data are expressed as the average IC50 from the assays.

The target in experiment [2] is T2, Recombinant human JAK2 (catalytic domain, amino acids 808-1132) (Homo sapiens, UniProt O60674).
T2 construct: catalytic domain, amino acids 808-1132
T2 sequence (O60674 808-1132): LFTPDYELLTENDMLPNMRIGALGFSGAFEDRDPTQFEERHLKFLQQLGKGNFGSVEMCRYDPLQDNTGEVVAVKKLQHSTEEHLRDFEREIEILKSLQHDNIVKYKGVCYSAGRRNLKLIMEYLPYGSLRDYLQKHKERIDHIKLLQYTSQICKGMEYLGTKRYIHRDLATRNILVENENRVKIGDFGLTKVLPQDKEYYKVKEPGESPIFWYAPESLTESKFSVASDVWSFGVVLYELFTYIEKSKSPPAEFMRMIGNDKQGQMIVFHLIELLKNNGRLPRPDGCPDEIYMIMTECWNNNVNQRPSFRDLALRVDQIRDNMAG
Put plainly: JAK2 inhibition assay. Also: 0.7 µM ATP. The format is biochemical. Conditions: read-out: JAK2 potency IC50. The procedure:
After 60 min at room temperature, reactions are stopped by adding 20 μL/well of detection mixture (1× detection buffer (Perkin Elmer, catalog number CR97-100) with 0.5 nM Europium-anti-phosphotyrosine (PT66) (Perkin Elmer, catalog number AD0068/AD0069) and 10 mM EDTA). […] Kinase activity is calculated by subtracting the ratio obtained in the presence of a positive control inhibitor (1 μM staurosporine) from the ratio obtained in the presence of vehicle. The ability of a test compound to inhibit this activity (or percentage inhibition) is determined as:
as §1
Dose dilution series are prepared for compound enabling the testing of dose-response effects in the JAK2 assay and the calculation of the IC50 for the compound. Each compound is routinely tested at concentration of 20 μM followed by a 1/5 serial dilution, 10 points in a final concentration of 1% DMSO. […] The data are expressed as the average IC50 from the assays.

The target of experiment [3] is Recombinant human JAK3 catalytic domain (amino acids 781-1124) (Homo sapiens, UniProt P52333). Put plainly: JAK3 inhibition assay. The format is biochemical. The procedure: After 45 min at 30° C., reactions are stopped by adding 25 μL/well of 150 mM phosphoric acid. […] Plates are washed 6 times with 300 μL per well of a 75 mM phosphoric acid solution and the bottom of the plates is sealed. […] Kinase activity is calculated by subtracting counts per min (cpm) obtained in the presence of a positive control inhibitor (10 μM staurosporine) from cpm obtained in the presence of vehicle. The ability of a test compound to inhibit this activity (or percentage inhibition) is determined as: […]
Chain of Recombinant human JAK3 catalytic domain (amino acids 781-1124) (P52333 781-1124): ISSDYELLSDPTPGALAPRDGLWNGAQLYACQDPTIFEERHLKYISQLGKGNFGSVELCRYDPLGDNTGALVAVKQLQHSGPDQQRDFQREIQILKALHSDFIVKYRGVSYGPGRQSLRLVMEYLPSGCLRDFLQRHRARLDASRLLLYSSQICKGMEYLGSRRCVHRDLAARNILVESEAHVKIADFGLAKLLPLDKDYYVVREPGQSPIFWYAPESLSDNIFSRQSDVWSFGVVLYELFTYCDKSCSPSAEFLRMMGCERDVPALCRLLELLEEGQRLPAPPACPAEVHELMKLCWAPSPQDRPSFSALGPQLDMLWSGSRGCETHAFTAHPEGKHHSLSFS
cpm test compound=cpm determined for sample with test compound present cpm control=cpm determined for sample with positive control inhibitor cpm vehicle=cpm determined in the presence of vehicle
Dose dilution series were prepared for the compounds enabling the testing of dose-response effects in the JAK3 assay and the calculation of the IC50 for each compound. Each compound is routinely tested at concentration of 20 μM followed by a 1/5 serial dilution, 10 points in a final concentration of 1% DMSO.

The target in experiment [4] is T3, Recombinant human TYK2 catalytic domain (amino acids 871-1187) (Homo sapiens, UniProt P29597).
T3 construct: catalytic domain (amino acids 871-1187)
T3 sequence (P29597 871-1187): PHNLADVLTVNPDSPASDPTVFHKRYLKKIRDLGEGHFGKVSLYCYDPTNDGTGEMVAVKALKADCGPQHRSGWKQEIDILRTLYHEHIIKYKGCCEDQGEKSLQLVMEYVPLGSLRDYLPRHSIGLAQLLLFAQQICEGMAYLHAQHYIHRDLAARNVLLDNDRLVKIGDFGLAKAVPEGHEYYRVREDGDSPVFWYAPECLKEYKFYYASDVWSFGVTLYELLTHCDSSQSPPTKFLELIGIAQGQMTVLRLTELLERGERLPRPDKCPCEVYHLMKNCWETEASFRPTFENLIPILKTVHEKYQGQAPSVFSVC
Kind of experiment: TYK2 radioactive assay polyGT substrate. Also: 0.1 µM ATP. In kind it is biochemical. In outline:
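Reaction at 30° C. for 120 min, ended with 150 mM phosphoric acid, washed, counted; percent inhibition scaled between vehicle and 10 μM staurosporine cpm.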

Experiment [5] has as its system IFNα activation of STAT1 in PBMC. Kind of experiment: IFNα activation of STAT1 in PBMC. The format is cell-based. Conditions: Homo sapiens; IFNα activation of STAT1 in PBMC; average IC50; read-out: IFNα signaling inhibitory potency IC50. In outline: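 Human PBMC, with red cells lysed by NH4Cl, were pre-treated with compound for 30 min at 37 °C and 5% CO2. They were then stimulated for 30 min with recombinant human IFNα at 5 ng/mL final.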

In experiment [6] the test system is IL-12 activation of STAT4 in NK-92 cells. Put plainly: IL-12 activation of STAT4 in NK-92 cells using AphaLISA SureFire technology. The format is cell-based. Conditions: Homo sapiens, NK92; IL-12 activation of STAT4 in NK-92 cells, AlphaLISA SureFire; average IC50; read-out: IL12 pSTAT4 IC50. Summed up: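 NK-92 cells, starved of rhIL-2 overnight, were stimulated with rhIL-12 for 30 min at 37 °C with test compounds, then lysed. Phospho-STAT4 (Tyr693) was read by AlphaLISA SureFire. Percent inhibition versus the vehicle-plus-trigger signal was fitted by sigmoidal nonlinear regression to give IC50, averaged over experiments.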
In general terms: Alpha assays give light when donor and acceptor beads are brought close together.

Consider `Cc1cc(C#N)nnc1Oc1cc(Nc2cc(N)ncn2)c2ncn(C)c2n1` [Compound 3, 6-[7-(6-Amino-pyrimidin-4-ylamino)-3-methyl-3H-imidazo[4,5-b]pyridin-5-yloxy]-5-methyl-pyridazine-3-carbonitrile], for which the IC50 turned out to be 110 nM in experiment [1]; 78 nM in experiment [2]; 2160 nM in experiment [3]; 12.7 nM in experiment [4]; 119 nM in experiment [5]; 274 nM in experiment [6].

For the molecule `COCCCN(c1cc(Nc2cc(N)ncn2)c2ncn(C)c2n1)c1cnc(C#N)cc1C` [Compound 4, 5-[[7-(6-Amino-pyrimidin-4-ylamino)-3-methyl-3H-imidazo[4,5-b]pyridin-5-yl]-(3-methoxy-propyl)-amino]-4-methyl-pyridine-2-carbonitrile], the IC50 is 92.3 nM in experiment [1]; 16.4 nM in experiment [2]; 784 nM in experiment [3]; 4.37 nM in experiment [4]; 91 nM in experiment [5]; 198 nM in experiment [6].

As to `Cn1cnc2c(Nc3ccc(S(C)(=O)=O)cn3)cc(OC(C3CC3)C(F)(F)F)nc21` (stereo not drawn) [Compound 22, 5-(1-cyclopropyl-2,2,2-trifluoro-ethoxy)-3-methyl-N-(5-methylsulfonyl-2-pyridyl)imidazo[4,5-b]pyridin-7-amine], the IC50 in experiment [1] is 23 nM; in experiment [2], 3.35 nM; in experiment [3] it was 97.9 nM; in experiment [4] it was 3.07 nM; in experiment [5], 50 nM; in experiment [6] it was 22 nM.

As for `COCCNc1cc(Nc2cc(Oc3cnc(C#N)cc3C)nc3c2ncn3C)ncn1` [Compound 31, 5-{7-[6-(2-Methoxy-ethylamino)-pyrimidin-4-ylamino]-3-methyl-3H-imidazo[4,5-b]pyridin-5-yloxy}-4-methyl-pyridine-2-carbonitrile], the IC50 in experiment [1] is 187 nM; in experiment [2], 43.8 nM; in experiment [3] it was 1050 nM; in experiment [4] it was 8.01 nM; in experiment [5] it was 94 nM; in experiment [6], 110 nM.

For the molecule `Cc1cc(C#N)ncc1Oc1cc(Nc2cc(NCCC(C)(C)O)ncn2)c2ncn(C)c2n1` [Compound 33, 5-{7-[6-(3-Hydroxy-3-methyl-butylamino)-pyrimidin-4-ylamino]-3-methyl-3H-imidazo[4,5-b]pyridin-5-yloxy}-4-methyl-pyridine-2-carbonitrile], the IC50 in experiment [1] came to 67.6 nM; in experiment [2] it was 23.1 nM; in experiment [3], 503 nM; in experiment [4] it was 2.93 nM; in experiment [5] it was 72 nM; in experiment [6] it was 129 nM.

On to `COC1CC(Nc2cc(Nc3cc(Oc4cnc(C#N)cc4C)nc4c3ncn4C)ncn2)C1` (stereo not drawn) [Compound 36, 5-{7-[6-(3-Methoxy-cyclobutylamino)-pyrimidin-4-ylamino]-3-methyl-3H-imidazo[4,5-b]pyridin-5-yloxy}-4-methyl-pyridine-2-carbonitrile], for which the IC50 came to 40.5 nM in experiment [1]; 9.17 nM in experiment [2]; 417 nM in experiment [3]; 1.41 nM in experiment [4]; 79 nM in experiment [5]; 50 nM in experiment [6].

In the case of `Cc1cc(C#N)ncc1Oc1cc(Nc2cnn(C)c2)c2ncn(C)c2n1` [Compound 61, 4-methyl-5-[3-methyl-7-[(1-methylpyrazol-4-yl)amino]imidazo[4,5-b]pyridin-5-yl]oxy-pyridine-2-carbonitrile], the IC50 in experiment [1] stood at 60.3 nM; in experiment [2], 58.4 nM; in experiment [3], 1110 nM; in experiment [4] it was 10.3 nM; in experiment [5] it was 112 nM; in experiment [6] it was 221 nM.

Turning to `CC(C)C(Nc1cc(Nc2ccc(S(C)(=O)=O)cn2)c2ncn(C)c2n1)C(F)(F)F` (stereo not drawn) [Compound 65, 3-methyl-N7-(5-methylsulfonyl-2-pyridiyl)-N5-[2-methyl-1-(trifluoromethyl)propyl]imidazo[4,5-b]pyridine-5,7-diamine], the IC50 in experiment [1] turned out to be 69.4 nM; in experiment [2], 12.4 nM; in experiment [3], 69.7 nM; in experiment [4], 7.84 nM; in experiment [5], 96 nM; in experiment [6], 80 nM.

For the molecule `COCCCS(=O)(=O)c1ccc(Nc2cc(Oc3cnc(C#N)cc3C)nc3c2ncn3C)cc1` [Compound 71, 5-[7-[4-(3-methoxypropylsulfonyl)anilino]-3-methyl-imidazo[4,5-b]pyridin-5-yl]oxy-4-methyl-pyridine-2-carbonitrile], the IC50 was found to be 103 nM in experiment [1]; 86.2 nM in experiment [2]; 1080 nM in experiment [3]; 13.6 nM in experiment [4]; 111 nM in experiment [5]; 128 nM in experiment [6].

In the case of `CCNC(c1ccc(Nc2cc(Oc3cnc(C#N)cc3C)nc3c2ncn3C)nc1)C(F)(F)F` (stereo not drawn) [Compound 80, 5-[7-[[5-[1-(ethylamino)-2,2,2-trifluoroethyl]pyridin-2-yl]amino]-3-methylimidazo[4,5-b]pyridin-5-yl]oxy-4-methylpyridine-2-carbonitrile], the IC50 in experiment [1] was 19.9 nM; in experiment [2], 5.2 nM; in experiment [3] it was 392 nM; in experiment [4], 2.22 nM; in experiment [5] it was 93 nM; in experiment [6] it was 83 nM.

As for `Cc1cc(C#N)ncc1Oc1cc(Nc2ccc(CN(C)C)cn2)c2ncn(C)c2n1` [Compound 81, 5-[7-[[5-[(dimethylamino)methyl]pyridin-2-yl]amino]-3-methylimidazo[4,5-b]pyridin-5-yl]oxy-4-methylpyridine-2-carbonitrile formate salt], the 50% inhibitory concentration (IC50) turned out to be 150 nM in experiment [1]; 10.4 nM in experiment [2]; 386 nM in experiment [3]; 6.83 nM in experiment [4]; 56 nM in experiment [5]; 224 nM in experiment [6].

As for `COc1ccc(Nc2cc(Oc3cnc(C#N)cc3C)nc3c2ncn3C)nc1` [Compound 84, 5-[7-[(5-methoxypyridin-2-yl)amino]-3-methylimidazo[4,5-b]pyridin-5-yl]oxy-4-methylpyridine-2-carbonitrile], the IC50 in experiment [1] was 57.1 nM; in experiment [2] it was 45.5 nM; in experiment [3], 908 nM; in experiment [4], 11 nM; in experiment [5], 178 nM; in experiment [6], 87 nM.
